Assay results as given in US20230172925A1, “SKIN-CARE COMPOSITIONS AND USES THEREOF” (AHAVA - DEAD SEA LABORATORIES LTD., priority 2019, published 2023).

What was measured:
Format in all cases: cell-based
[1] = test system: TNFα; assay: Human skin organ culture with UVB stressor, TNFα secretion in the medium; settings: UVB 200 mJ/cm2; irradiated sample = 100% (53±30 pg/ml); complex, DSE 3.0%, β-Caroten 15.6 ppm
Procedure: (§1) Topical exposure till 48 hours in total (24 hr recovery following topical application+24 hr after exposure to UVB irradiation) with UVB radiation as stressor on human skin model
(§2) The following general procedure was used in the study:
(§3) Day 1: Topical application of 3 μl of each sample solution on the epidermis of each skin explant. Incubate for 24 hours. SDS 10% was applied only once, and was not farther irradiated with UVB.
(§4) Day 2: Skin explants were washed once with PBS and irradiated with UVB lamp at 200 mJ/cm2. After radiation it was incubated for 30 min and then topically apply each treatment (sample solution) again. Control was not irradiated under UVB light. UVB radiated control was without any treatment except radiation.
(§5) Day 3: Viability and Caspase3 activity were measured for the epidermis layer. The medium was collected for cytokines test.
FIG. 4 illustrates the TNFα secretion results in the medium as observed with 2 to 4 repetition of the tests. In FIG. 4 the TNFα secretion of the irradiated sample “UVB” was selected as 100% and it equals 53±30 pg/ml.

[2] = test system: IL-1α; assay: Human skin organ culture with UVB stressor, IL-1α secretion in the medium; settings: UVB; OSM 0.5%, β-Caroten 15.6 ppm
Procedure: as §1, §2, §3, §4, §5
FIG. 5 illustrates the IL-1α secretion results in the medium as observed with 3 to 4 repetition of the tests. In FIG. 5 the IL-1α secretion of the irradiated sample “UVB” was selected as 100% and it equals 8.1±1.0 pg/ml.

[3] = test system: MatTek EFT-400 full thickness tissues; assay: DNA microarray gene expression in skin equivalents, complex vs individual ingredients (Example 5); parameters: key to Genes up and downregulation in pathway: + = up-regulated; − = down-regulated; *non-significant down-regulation, thus, regulation is considered as non-affected (NA); settings: for Up-Regulated Genes (number): cut off of two fold change of adjusted Fold Change, 48 hours
Procedure: MatTek EFT-400 full thickness tissues were used as the model for this study. Upon arrival, the full thickness tissues were placed into 6 wells plates with 2 ml of culture media and incubated overnight at 37±2° C. and 5±1% CO2. After this overnight incubation the culture media was replaced with 5 ml of fresh media and the tissues were treated topically with the test materials prepared in distilled water as follows:
After the application of the test materials the tissues were incubated at 37±2° C. and […] for 48 hours.
At the end of the treatment period, the tissues were rinsed and transferred to a 2 ml centrifuge tube containing 700 μl of lysis buffer and homogenized. After centrifuging at 14,000×g for 10 minutes at 4° C. the supernatant from each tube was transferred to a new 1.5 ml tube and mixed with and equal volume of 64% ethanol. After mixing the solutions was transferred to glass fiber filter cartridges and the cartridges were loaded into a 1.5 ml collection tube centrifuged for 1 minute at 14,000 RPM in a Napco 2002 Microcentrifuge with a DA-6T fixed angle rotor. The flow through was discarded and any remaining mixture was loaded into the filter cartridge and the centrifugation process was repeated until all of the mixture had been processed. The filter was then washed to remove any residual cellular debris from the RNA bound to the glass fibers by subsequently applying 700 μl of wash solution 1 (1 time) and 500 μl of wash solution 2 (2 times) to the filter cartridge and centrifuging at 14,000 RPM for 1 minute to pass each wash through the cartridge. After each wash, the flow through was discarded. After the final wash one final spin was performed without wash solution to remove any residual wash solution in the filter cartridge. The RNA bound to the glass fibers within the cartridge was then eluted by applying 40 μl of TE buffer (10 mM Tris-HCl, 1 mM EDTA, preheated to 70-80° C.) to the cartridge and centrifuging the cartridge in a new collection tube at 14,000 RPM for one minute. The elution process was then repeated a second time using 20 μl of TE buffer.
First Strand cDNA Synthesis: To start the first strand synthesis, 10 μl of total RNA for each sample was added to a 600 μl PCR tube and the total volume of liquid in the tube will be adjusted to 11 μl with DEPC H2O. Next, 1 μl of T7 Oligo(dT) primer was added and the tube was incubated in a water bath at 70±2° C. for 10 minutes to denature the RNA and then placed on ice to allow the primers to anneal to the poly A ends of the mRNA. After cooling 2 μl of 10× first strand buffer, 1 μl of RNAse inhibitor and 4 μl of dNTP mix were added to each tube, and the tube was incubated at 42° C. in a hybridization oven (Labnet Problot). As soon as the tube was heated, 1 μl of Reverse Transcriptase was added and the tubes were returned to 42±2° C. for 2 hours. At the end of the two hours the tubes were briefly centrifuged to collect all of the fluid at the bottom of the tube and then placed on ice.
Two tubes were prepared for the labeling process, one for Cy3 labeling (green) and one for Cy5 labeling (red). To the Cy3 tube 2 μg of aRNA prepared from the untreated/control sample (the actual color assignment for each sample is not important, but for consistency Cy3 is normally used for the untreated sample) and enough DEPC H2O was added to bring the total volume up to 4 μl. To the Cy5 tube 2 μg of aRNA prepared from the sample treated with the test material and enough DEPC H2O was added to bring the total volume up to 4 μl. To both tubes 5 μl of ASAP labeling buffer was added along with 1 μl of the specific dye for the tube (Cy3 or Cy5). The tubes were incubated for 15 minutes at 85±2° C. At the end of the 15 minutes the tubes were placed on ice to cool them and then add 2.5 μl of ASAP stop solution was added to each tube.

[4] = KEGG_NUCLEOTIDE_EXCISION_REPAIR
[5] = KEGG_SIGNALING_PATHWAYS_REGULATING_PLURIPOTENCY_OF_STEM_CELLS
[6] = WIKI_ASSEMBLY_OF_COLLAGEN_FIBRILS_AND_OTHER_MULTIMERIC_STRUCTURES

CC1=C(/C=C/C(C)=C/C=C/C(C)=C/C=C/C=C(C)/C=C/C=C(C)/C=C/C2=C(C)CCCC2(C)C)C(C)(C)CCC1 [β-Caroten, β-carotene]
TNFα concentration as % of the irradiated skin explant [1]: 70% | increase in IL-1α secretion compared to the control [2]: 20% | z-score ([3]; KEGG_APOPTOSIS): −0.5665 | z-score ([3]; KEGG_BASE_EXCISION_REPAIR): −1.4296 | Genes up and downregulation in pathway ([3]; KEGG_CELL_CYCLE): − | z-score ([3]; KEGG_CELL_CYCLE): −2.4656 | z-score ([3]; KEGG_CIRCADIAN_RHYTHM_MAMMAL): −1.209 | z-score ([3]; KEGG_FATTY_ACID_BIOSYNTHESIS): −0.6185 | z-score ([3]; KEGG_FATTY_ACID_DEGRADATION): −1.0292 | z-score ([3]; KEGG_GLYCOLYSIS_GLUCONEOGENESIS): −1.0754 | z-score ([3]; KEGG_NF_KAPPA_B_SIGNALING_PATHWAY): 3.1522 | Genes up and downregulation in pathway [3, 4]: − | z-score [3, 4]: −1.5901 | z-score ([3]; KEGG_OXIDATIVE_PHOSPHORYLATION): 3.5721 | Genes up and downregulation in pathway ([3]; KEGG_P53_SIGNALING_PATHWAY): − | z-score ([3]; KEGG_P53_SIGNALING_PATHWAY): −1.6942 | z-score ([3]; KEGG_PROTEASOME): 1.1865 | z-score ([3]; KEGG_RETINOL_METABOLISM): −0.6377 | Genes up and downregulation in pathway [3, 5]: − | z-score [3, 5]: −2.818 | z-score ([3]; KEGG_SPHINGOLIPID_METABOLISM): −0.4773 | z-score ([3]; KEGG_TH1_AND_TH2_CELL_DIFFERENTIATION): 1.3936 | z-score ([3]; KEGG_TIGHT_JUNCTION): −0.07358 | z-score ([3]; KEGG_TNF_SIGNALING_PATHWAY): 5.6735 | z-score ([3]; KEGG_T_CELL_RECEPTOR_SIGNALING_PATHWAY): 1.5111 | z-score ([3]; KEGG_WNT_SIGNALING_PATHWAY): −1.5459 | z-score ([3]; WIKI_ACTIVATION_OF_MATRIX_METALLOPROTEINASES): 0.8244 | Genes up and downregulation in pathway [3, 6]: − | z-score [3, 6]: −5.9295 | z-score ([3]; WIKI_COLLAGEN_BIOSYNTHESIS_AND_MODIFYING_ENZYMES): 4.7943 | regulation of collagen synthesis and extracellular matrix pathways (Z-Score heatmap, in words) ([3]; WIKI_COLLAGEN_BIOSYNTHESIS_AND_MODIFYING_ENZYMES, WIKI_EXTRACELLULAR_MATRIX_ORGANIZATION, WIKI_DEGRADATION_OF_THE_EXTRACELLULAR_MATRIX, WIKI_COLLAGEN_DEGRADATION, WIKI_ASSEMBLY_OF_COLLAGEN_FIBRILS_AND_OTHER_MULTIMERIC_STRUCTURES): very much down regulated | z-score ([3]; WIKI_COLLAGEN_DEGRADATION): −5.0219 | z-score ([3]; WIKI_DEGRADATION_OF_THE_EXTRACELLULAR_MATRIX): 4.6457 | Genes up and downregulation in pathway ([3]; WIKI_ELASTIC_FIBRE_FORMATION): − | z-score ([3]; WIKI_ELASTIC_FIBRE_FORMATION): −2.0745 | z-score ([3]; WIKI_ELECTRON_TRANSPORT_CHAIN_IN_MITOCHONDRIA): 2.7536 | z-score ([3]; WIKI_EXTRACELLULAR_MATRIX_ORGANIZATION): 4.5653 | Genes up and downregulation in pathway ([3]; WIKI_KERATINIZATION): + | z-score ([3]; WIKI_KERATINIZATION): 6.3972 | z-score ([3]; WIKI_NRF2_PATHWAY): 1.7004 | z-score ([3]; WIKI_RESPIRATORY_ELECTRON_TRANSPORT_ATP_SYNTHESIS): 2.2177 | z-score ([3]; WIKI_SPHINGOLIPID_METABOLISM): −0.9459 | Up-Regulated Genes (number) ([3]; 19254 genes evaluated): 196 | Up-Regulated Genes (number) ([3]; second column of Table 6): 503
